Results as given in article PMC6476928 (Frontiers in Pharmacology, 2019).
Substitutions are numbered along the chain they refer to.

Legend:
Assay type in all cases: cell-based
[1] = biological target: T1, Kv4.2 F289A (Homo sapiens, UniProt Q9NZV8, F289A); experiment: Patch clamp of Kv4.2 mutant F289A in HEK293T cells
T1 construct: expressed in transfected cells; host or cells: HEK293T
T1 sequence (Q9NZV8 1-630 F289A): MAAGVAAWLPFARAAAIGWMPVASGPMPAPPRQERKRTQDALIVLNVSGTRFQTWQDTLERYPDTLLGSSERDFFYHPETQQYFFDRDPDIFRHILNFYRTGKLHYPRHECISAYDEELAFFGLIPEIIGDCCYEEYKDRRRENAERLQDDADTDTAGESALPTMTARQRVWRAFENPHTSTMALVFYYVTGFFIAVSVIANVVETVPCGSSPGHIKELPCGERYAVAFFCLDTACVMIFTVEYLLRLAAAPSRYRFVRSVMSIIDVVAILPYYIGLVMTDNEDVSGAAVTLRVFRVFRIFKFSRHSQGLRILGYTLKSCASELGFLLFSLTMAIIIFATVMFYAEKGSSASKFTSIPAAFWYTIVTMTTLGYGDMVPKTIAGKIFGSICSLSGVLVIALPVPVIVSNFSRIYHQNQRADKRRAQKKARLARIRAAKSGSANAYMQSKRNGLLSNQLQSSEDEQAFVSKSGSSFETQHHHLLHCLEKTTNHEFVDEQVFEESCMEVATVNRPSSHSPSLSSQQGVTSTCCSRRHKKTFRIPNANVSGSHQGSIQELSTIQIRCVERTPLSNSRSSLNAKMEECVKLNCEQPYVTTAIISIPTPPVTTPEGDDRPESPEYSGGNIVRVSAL
T1 sequence (Q9NS61 1-270 partner): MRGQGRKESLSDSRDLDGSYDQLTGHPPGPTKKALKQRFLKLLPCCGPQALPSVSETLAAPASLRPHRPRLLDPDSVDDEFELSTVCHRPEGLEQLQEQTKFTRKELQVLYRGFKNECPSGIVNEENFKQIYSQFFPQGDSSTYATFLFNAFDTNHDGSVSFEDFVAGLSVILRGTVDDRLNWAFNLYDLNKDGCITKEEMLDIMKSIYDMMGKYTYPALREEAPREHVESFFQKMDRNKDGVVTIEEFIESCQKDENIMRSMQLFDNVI
Procedure: (§1) Human embryonic kidney cell line (HEK293T) was obtained from Shanghai Institute of Cell Biology, Chinese Academy of Sciences (Shanghai, China) and maintained with 5% CO2 at 37°C in DMEM supplemented with 10% heat-inactivated fetal calf and serum (FBS), penicillin (100 U/ml), and streptomycin (100 μg/ml). The WT/mutant Kv4.2 plasmids were transiently transfected into HEK293T by Lipofectamine^TM 2000 Reagent (Invitrogen), and the KChIP2 subunits were co-transfected with Kv4.2.
(§2) The extracellular buffer and pipette solution for AP, Ito, and Kv4.2 were used as follows.
(§3) Kv4.2 current, The pipette solution contained (mM) 140 KF, 5 ATP-2Na, 1 EGTA, and 10 HEPEs (pH = 7.4). […] The steady-state activation of Kv4.2 was measured with the holding potential −80 mV and applied from −80 mV to 70 mV (10-mV increments). Steady-state inactivation of Kv4.2 channel measured with a series of a 300-ms depolarizing test potential of 10 mV followed a 1000-ms prepulse at potentials ranging from −120 to +70 mV with a 5-mV increment.
(§4) Data were analyzed using the clampfit (Axon) and Origin 9 software programs. […] The steady-state activation relationship was measured using Boltzmann function (f(V) = 1/{1 + exp[−(V−V1/2)/k]}^4). Steady-state inactivation was measured using the Boltzmann function f(V) = 1/{1 + exp[−(V − V1/2)/k]}.

[2] = biological target: T2, Kv4.2 V285A (Homo sapiens, UniProt Q9NZV8, V285A); experiment: Patch clamp of Kv4.2 mutant V285A in HEK293T cells
T2 construct: expressed in transfected cells; host or cells: HEK293T
T2 sequence (Q9NZV8 1-630 V285A): T1 sequence (Q9NZV8 1-630 F289A) with V285A, A289F
T2 sequence (Q9NS61 1-270 partner): T1 sequence (Q9NS61 1-270 partner)
Procedure: as §1, §2, §3, §4

[3] = biological target: T3, Kv4.2 (Homo sapiens, UniProt Q9NZV8); experiment: Whole-cell patch clamp of WT Kv4.2 co-expressed with KChIP2 in HEK293T cells; design: expressed in transfected cells; host or cells: HEK293T
T3 sequence (Q9NZV8 1-630): T1 sequence (Q9NZV8 1-630 F289A) with A289F
T3 sequence (Q9NS61 1-270 partner): T1 sequence (Q9NS61 1-270 partner)
Procedure: as §1, §2
Kv4.2 current, The pipette solution contained (mM) 140 KF, 5 ATP-2Na, 1 EGTA, and 10 HEPEs (pH = 7.4). […] The Kv4.2 currents were elicited by a 300-ms depolarizing voltage of 10 mV from a holding potential of −80 mV. The steady-state activation of Kv4.2 was measured with the holding potential −80 mV and applied from −80 mV to 70 mV (10-mV increments). Steady-state inactivation of Kv4.2 channel measured with a series of a 300-ms depolarizing test potential of 10 mV followed a 1000-ms prepulse at potentials ranging from −120 to +70 mV with a 5-mV increment.
Data were analyzed using the clampfit (Axon) and Origin 9 software programs. All data points are shown as mean SEM. The significance was estimated using unpaired two-tailed t-tests, and a P < 0.05 was considered statistically significant. n stands for the number of the separate experimental cells. […] The steady-state activation relationship was measured using Boltzmann function (f(V) = 1/{1 + exp[−(V−V1/2)/k]}^4). Steady-state inactivation was measured using the Boltzmann function f(V) = 1/{1 + exp[−(V − V1/2)/k]}.

`CC[C@H](C)[C@H](NC(=O)[C@@H](NC(=O)[C@H](CCCCN)NC(=O)[C@H](CCCNC(=N)N)NC(=O)[C@@H]1CSSC[C@@H]2NC(=O)[C@H](C)NC(=O)[C@H](CCCNC(=N)N)NC(=O)[C@H](CCCCN)NC(=O)[C@H](CO)NC(=O)[C@H](CC(=O)O)NC(=O)[C@@H]3CSSC[C@H](NC(=O)[C@H](CCCNC(=N)N)NC(=O)[C@H](CC(C)C)NC(=O)CNC(=O)[C@H](CCC(=O)O)NC(=O)[C@H](CSSC[C@H](NC(=O)[C@@H](N)Cc4ccc(O)cc4)C(=O)N[C@@H](CCC(N)=O)C(=O)N[C@@H](CCCCN)C(=O)N[C@@H](Cc4c[nH]c5ccccc45)C(=O)N[C@@H](CCSC)C(=O)N[C@@H](Cc4c[nH]c5ccccc45)C(=O)N[C@@H]([C@@H](C)O)C(=O)N3)NC2=O)C(=O)N[C@@H](CCCCN)C(=O)N[C@@H](CC(C)C)C(=O)N[C@@H](Cc2c[nH]c3ccccc23)C(=O)N1)[C@@H](C)CC)C(=O)O` [JZTX-V, Jingzhaotoxin-V] was tested, and the “reduction of sensitivity to the toxin vs WT Kv4.2” value [1] was about 11 fold, the “reduction of sensitivity to the toxin vs WT Kv4.2” value [2] was about 7 fold and the inhibition at 0.1 µM ([3]; HEK-293T, read-out: inhibition of Kv4.2 potassium current) was over 90%. The “V1/2 of steady-state activation (G–V curve)” value ([3]; in presence of 10 nM JZTX-V, +20 mV in absence) was “+30 mV” and the “half-maximal inactivation potential (Vin1/2)” value ([3]; in presence of 10 nM JZTX-V, −44.5 mV without) was −50.0 mV.
